Test results taken from patent EP4635565A1, “PRENYLATED TETRAHYDROQUINOLINES AND QUINOLINES WITH PPAR AGONIST ACTIVITY” (Fundación para la Investigación del Hospital Clínico de la …, priority 2024, dated 2025).

Legend:
[1] = target: T1, hPPARα (Homo sapiens, UniProt Q07869); experiment: PPAR transactivation assay, human chimeric PPAR/Gal4 reporter luciferase system in Cos-7 cells (PPARα); type: cell-based; settings: for Emax at 10 µM: COS-7, read-out: Efficacy (%) at 10 µmol/L PPARα; for Emax: COS-7, read-out: efficiencies times higher than the prior art compound WY-14,643
T1 sequence (Q07869 167-468): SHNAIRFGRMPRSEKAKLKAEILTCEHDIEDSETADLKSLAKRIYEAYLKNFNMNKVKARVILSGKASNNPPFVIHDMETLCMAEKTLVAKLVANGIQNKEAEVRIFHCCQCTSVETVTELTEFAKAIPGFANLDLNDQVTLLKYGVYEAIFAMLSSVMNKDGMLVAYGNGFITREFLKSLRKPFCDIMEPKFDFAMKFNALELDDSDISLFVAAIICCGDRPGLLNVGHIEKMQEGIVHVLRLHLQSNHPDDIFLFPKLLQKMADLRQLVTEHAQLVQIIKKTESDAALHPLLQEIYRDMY
Description: (§1) Transfections were stopped after 16 h by adding DMEM/10% FCS. Cells were detached with trypsin, re-seeded in 96-well plates for 6 h in DMEM/10% FCS, and incubated for 24 h in DMEM/0.2% FCS with increasing concentrations of the test compounds or vehicle (DMSO, 0.1% final concentration). At the end of the experiment, cells were washed once with ice-cold PBS, lysed, and luciferase and β-galactosidase activities were measured. Luciferase activity was normalised to that of the internal control, β-galactosidase. All transfection experiments were performed at least five times.
(§2) EC50 values against human PPARα/Gal4, PPARβ/δ/Gal4 and PPARγ/Gal4 receptors.

[2] = target: T2, hPPARβ/δ (Homo sapiens, UniProt Q03181); experiment: PPAR transactivation assay, human chimeric PPAR/Gal4 reporter luciferase system in Cos-7 cells (PPARβ/δ); type: cell-based; settings: for Emax at 10 µM: COS-7, read-out: Efficacy (%) at 10 µmol/L PPARβ/δ; for EC50: human PPARβ/δ/Gal4, Cos-7 cells, concentration range 0.001-10 µmol/L, NA: not active
T2 sequence (Q03181 171-441): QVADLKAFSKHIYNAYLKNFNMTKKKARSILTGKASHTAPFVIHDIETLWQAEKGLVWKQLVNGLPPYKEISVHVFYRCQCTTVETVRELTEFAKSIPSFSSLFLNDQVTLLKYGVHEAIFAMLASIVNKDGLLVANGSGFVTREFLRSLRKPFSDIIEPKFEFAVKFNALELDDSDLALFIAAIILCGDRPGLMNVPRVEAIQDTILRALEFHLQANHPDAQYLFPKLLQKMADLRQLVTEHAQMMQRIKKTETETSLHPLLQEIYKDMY
Description: as §1, §2

[3] = target: T3, hPPARγ (Homo sapiens, UniProt P37231); experiment: PPAR transactivation assay, human chimeric PPAR/Gal4 reporter luciferase system in Cos-7 cells (PPARγ); type: cell-based; settings: for Emax at 10 µM: COS-7, read-out: Efficacy (%) at 10 µmol/L PPARγ; for EC50: human PPARγ/Gal4, Cos-7 cells, concentration range 0.001-10 µmol/L, NA: not active
T3 sequence (P37231 238-505): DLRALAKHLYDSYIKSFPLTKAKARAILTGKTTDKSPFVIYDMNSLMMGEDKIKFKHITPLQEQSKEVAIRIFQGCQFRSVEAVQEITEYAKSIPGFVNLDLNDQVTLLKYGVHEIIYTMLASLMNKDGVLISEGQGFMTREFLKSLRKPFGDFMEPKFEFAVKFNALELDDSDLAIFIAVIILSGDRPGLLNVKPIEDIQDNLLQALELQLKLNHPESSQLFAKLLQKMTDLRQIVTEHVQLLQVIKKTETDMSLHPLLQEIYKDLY
Description: as §1, §2

[4] = tested on: hPPARα, hPPARβ/δ, and hPPARγ; experiment: PPAR transactivation assays, agonist profile over the three isoforms; settings: always with partial activity on the PPARγ isoform
[5] = tested on: THP-1 cells; experiment: Cytotoxicity, Annexin V-FITC/PI dual staining by flow cytometry; type: cell-based, human; settings: 30 and 100 µM, 24 h
Description: The cytotoxicity of tetrahydroquinoline and quinoline esters 5a, 5b, 8a and 8b was evaluated at 30 and 100 µM by flow cytometry to assess cell survival using an Annexin V-FITC/PI dual staining assay. THP-1 cells (3 × 10^4 cells per well) were seeded in 24-well plates and allowed to grow overnight. The medium was then replaced and incubations with the different compounds or DMSO were performed during 24 h. Then, all cells were processed with the Annexin V-assay kit (ANXCFK7, Immunostep, Salamanca, Spain) according to the manufacturer's instruction. A Becton Dickinson LSR Fortessa cytometer (BD Biosciences, Franklin Lakes, NJ, USA) was used for samples, and cell analysis were performed using FACSDiva X20 software.
The potential cytotoxic effects of the compounds of the invention 5a, 5b, 8a, and 8b on the human macrophage cell line THP-1 were evaluated by flow cytometry to assess cell survival using an Annexin V-FITC/PI dual staining assay. The THP-1 cells were treated with concentrations of 30 and 100 µM for 24 h.

[6] = tested on: PDK4-(PPRE)3-Luc+; experiment: Pdk4 transactivation assay (PDK4-(PPRE)3-Luc+ reporter in L929sA cells); type: cell-based, mouse; settings: 10 µM, 6 h, L929sA cells; compared to GW7647 at 1 µM
Description: Transfection of L929sA cells stably expressing reporter genes was performed using the calcium phosphate precipitation protocol according to standard procedures with a 10-fold excess of the plasmid of interest in a pGL3-basic vector containing Luc+, a modified firefly luciferase gene (Promega Biotec, Madison, Wis,) USA. USA). The Pdk4 reporter was created using an enhancer site linked to the Pdk4 promoter containing three PPRE extracted from mouse liver genomic DNA. The aforementioned plasmid construct was then introduced into a pMet7 backbone, which had previously been cloned with a luciferase gene site, using Xhol and Sacl cut sites. The resulting construct was subjected to geneticin (neomycin) antibiotic selection to isolate individual clones. A stable cell line, designated Pdk4-Luc+, was subsequently established in L929sA cells, which also contained a constitutively expressed galactosidase reporter and a neomycin selection cassette.
(§3) Pyruvate Dehydrogenase Kinase 4 gene (Pdk4), a well-known target gene of PPARs, encodes a protein that regulates the phosphorylation and inactivation of the pyruvate dehydrogenase complex in response to physiological conditions. This response switches the energy source from glucose to fatty acids to maintain blood glucose levels to, thereby, increase lipid metabolism. Because it is a well-known target gene of PPARs, the effect of the 2- and 3-prenylated esters of tetrahydroquinolines and quinolines on a Pdk4 region reported to bind PPARα, was evaluated. The L929sA cells that were stably transfected with a PDK4-(PPRE)3-Luc+ reporter gene construct were used.

[7] = tested on: Pdk4; experiment: Pdk4 mRNA expression by RT-qPCR in L929sA WT cells; type: cell-based, mouse; settings: 10 µM, 6 h
Description: (§4) RNA was isolated using the RNeasy Purification Kit (Qiagen) according to the manufacturer's instructions. cDNA was synthesised using a PrimeScript kit (Takara). RT-qPCR was performed using Light Cycler 480 SYBR Green I Master Mix (Roche).
as §3

[8] = tested on: NF-κB-IL8P-Luc+; experiment: NF-κB-IL8P transactivation assay (TNFα-stimulated L929sA cells); type: cell-based, mouse; settings: 10 µM, 1 h before TNF (2000 IU/ml), total induction time 6 h; compared to GW7647
Description: L929sA mouse fibroblasts were stably transfected using the calcium phosphate precipitation protocol, as described previously with p1481.IL8P-Luc+ plasmid construct. The indicated induction was performed at least in triplicates. All conditions were solvent-controlled. Subsequently, the cells were washed with PBS and lysed using TROPIX lysis buffer. Cellular luciferase levels were normalised to those of β-galactosidase (TROPIX, Bedford, MA, USA).
(§5) PPARs play crucial roles in controlling inflammatory responses. NF-κB is a transcription factor that plays a pivotal role in the expression of multiple genes involved in the immune and inflammatory responses. To study the potential anti-inflammatory effects of the tetrahydroquinolines and quinolines of the invention, the NF-κB-dependent physiological human IL-8 promoter construct, p1481.IL8P-Luc+, which is stably integrated into L929sA cells, was tested. After transfection, cells were treated at 10 µM with 5a, 5b, 8a, or 8b prior to TNFa stimulation. […] Given the significant decrease in NF-κB-IL8P-Luc+ reporter gene activity observed after treatment with the 2- or 3-prenylated tetrahydroquinolines 5a and 5b and the 3-prenylated quinoline 8b, their potential anti-inflammatory effects at the transcriptional level for other inflammatory mediators was evaluated. To achieve this, the L929sA WT cells were treated with 5a, 5b and 8b at 10 µM for 1 h, followed by TNFa stimulation for a total induction time of 6 h. The expression of inflammatory genes was evaluated by RT-qPCR.

[9] = tested on: TNFα-induced proinflammatory genes; experiment: TNFα-induced pro-inflammatory gene expression by RT-qPCR in L929sA WT cells; type: cell-based, mouse; settings: 10 µM for 1 h, then TNFa, total induction time 6 h
Description: as §4, §5

Row | SMILES | EC50 [1] [nM] | Emax at 10 µM [1] [%] | Emax at 10 µM [2] [%] | EC50 [2] [nM] | Emax at 10 µM [3] [%] | EC50 [3] [nM] | PPAR agonist activity profile [4] | cytotoxic effects (cell survival) [5] | transactivation of the PDK4-Luc+ indicator [6] | Emax [1] [%] | expression of Pdk4 mRNA [7] | transactivation of the TNFα-dependent NF-κB-driven reporter [8] | transcription of TNFα-induced proinflammatory genes [9]
1 | C/C(=C\CCC1CCc2cc(OCc3ccccc3)ccc2N1C)CCC(=O)O (stereo not shown) [Compound 6a, (E)-7-(6-(benzyloxy)-1-methyl-1,2,3,4-tetrahydroquinolin-2-yl)-4-methylhept-4-enoic acid] | 2900 | 144 | 73 | 4600 | 36 | 3900 | pan-PPAR agonist activity |  |  |  |  |  | 
2 | CCOC(=O)CC/C(C)=C/CCc1ccc2cc(OCc3ccccc3)ccc2n1 [Compound 8a, Ethyl (E)-7-(6-(benzyloxy)quinolin-2-yl)-4-methylhept-4-enoate] | 2800 | 210 | 32 | 2000 |  |  |  | No cytotoxic effects were observed | increased the transactivation of the PDK4-Luc+ indicator |  |  |  | 
3 | CCOC(=O)CC/C(C)=C/CC1Cc2cc(OCc3ccccc3)ccc2N(C)C1C (stereo not shown) [Compound 5b, Ethyl (E)-6-(6-(benzyloxy)-1,2-dimethyl-1,2,3,4-tetrahydroquinolin-3-yl)-4-methylhex-4-enoate] | 1900 | 328 | 7 | 5800 | 15 | 16900 | selective PPARα | No cytotoxic effects were observed | increased the transactivation of the PDK4-Luc+ indicator | 300 to 400 | increased expression levels of Pdk4 | can repress the transactivation of the TNFα-dependent NF-κB-driven reporter | downregulated the transcription of TNFα-induced proinflammatory genes such as Cc/5 and II-6
4 | C/C(=C\Cc1cc2cc(OCc3ccccc3)ccc2nc1C)CCC(=O)O [Compound 9b, (E)-6-(6-(benzyloxy)-2-methylquinolin-3-yl)-4-methylhex-4-enoic acid] | 1800 | 218 | 2 | 5100 | 25 | 900 | dual PPARα/γ agonist activity |  |  |  |  |  | 
5 | C/C(=C\CC1Cc2cc(OCc3ccccc3)ccc2N(C)C1C)CCC(=O)O (stereo not shown) [Compound 6b, (E)-6-(6-(benzyloxy)-1,2-dimethyl-1,2,3,4-tetrahydroquinolin-3-yl)-4-methylhex-4-enoic acid] | 1300 | 461 | 35 | 5800 | 24 | 1700 | selective PPARα |  |  | 300 to 400 |  |  | 
6 | CCOC(=O)CC/C(C)=C/Cc1cc2cc(OCc3ccccc3)ccc2nc1C [Compound 8b, Ethyl (E)-6-(6-(benzyloxy)-2-methylquinolin-3-yl)-4-methylhex-4-enoate] | 2200 | 221 | 2 | 7900 | 37 | 1000 | dual PPARα/γ agonist activity | No cytotoxic effects were observed |  |  |  | can repress the transactivation of the TNFα-dependent NF-κB-driven reporter | downregulated the transcription of TNFα-induced proinflammatory genes such as Cc/5 and II-6
7 | C/C(=C\CCc1ccc2cc(OCc3ccccc3)ccc2n1)CCC(=O)O [Compound 9a, (E)-7-(6-(benzyloxy)quinolin-2-yl)-4-methylhept-4-enoic acid] | 3600 | 104 | 14 | 1100 | 39 | 3300 | dual PPARα/γ agonist activity |  |  |  |  |  | 
